The test deals with T1, BACE2 (Homo sapiens, UniProt Q9Y5Z0).
T1 construct: BACE2 enzyme ectodomain (derived from plasmid “pET17b-T7-hu proBACE2”) was prepared as described in Ostermann et al; T7 tag (N); made in house
T1 sequence (Q9Y5Z0 21-473 limits assumed): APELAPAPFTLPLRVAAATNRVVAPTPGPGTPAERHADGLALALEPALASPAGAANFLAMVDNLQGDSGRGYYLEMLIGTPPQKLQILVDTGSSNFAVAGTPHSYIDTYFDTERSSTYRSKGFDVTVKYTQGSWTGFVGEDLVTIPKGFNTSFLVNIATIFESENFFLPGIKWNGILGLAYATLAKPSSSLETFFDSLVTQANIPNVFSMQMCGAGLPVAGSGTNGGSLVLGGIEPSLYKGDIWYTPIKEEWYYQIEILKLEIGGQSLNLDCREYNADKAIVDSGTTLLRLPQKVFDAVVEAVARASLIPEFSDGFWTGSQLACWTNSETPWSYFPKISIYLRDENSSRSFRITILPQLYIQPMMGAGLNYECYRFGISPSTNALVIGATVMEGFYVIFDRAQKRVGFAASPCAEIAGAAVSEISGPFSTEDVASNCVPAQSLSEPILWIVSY
Kind of test: Fluorescent-peptide cleavage assay for BACE2 inhibition. As to conditions: BACE2 enzyme ectodomain, fluorescent peptide WS EVNLD AEFRC-MR121, assay buffer pH 4.5, room temperature. The format is biochemical. The procedure, abridged:
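Pro-enzyme BACE2 was activated at 80 nM for 1 h at room temperature in 100 mM Na-acetate, 20 mM EDTA, 0.05% BSA, pH 4.5, then preincubated 10 min with compound. IC50 from sigmoidal dose-response fit.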
In the case of `CN1C(=O)C(C)(C)[C@@](C)(c2cc(NC(=O)c3ccc(Cl)cn3)ccc2Cl)N=C1N` [Example 126, 5-Chloro-pyridine-2-carboxylic acid [3-((S)-2-amino-1,4,5,5-tetramethyl-6-oxo-1,4,5,6-tetrahydro-pyrimidin-4-yl)-4-chloro-phenyl]amide], the half-maximal inhibitory concentration (IC50) worked out at 36 nM.

Turning to `CN1C(=O)C[C@]2(CCc3ccc(NC(=O)c4ccc(Cl)cn4)cc32)N=C1N` [Example 127, N-[(1S)-2′-amino-1′-methyl-6′-oxo-2,3,5′,6′-tetrahydro-1′H-spiro[indene-1,4′-pyrimidin]-6-yl]-5-chloropyridine-2-carboxamide], the IC50 was 160 nM.

Turning to `CN1C(=O)C[C@]2(CCc3ccc(NC(=O)c4ccccn4)cc32)N=C1N` [Example 128, N-[(1S)-2′-amino-1′-methyl-6′-oxo-2,3,5′,6′-tetrahydro-1′H-spiro[indene-1,4′-pyrimidin]-6-yl]pyridine-2-carboxamide], half-maximal inhibition (IC50) required 1670 nM.

Compound `CN1C(=O)C[C@]2(CCc3ccc(NC(=O)c4ccc(OCC(F)(F)F)cn4)cc32)N=C1N` [Example 129, N-[(1S)-2′-amino-1′-methyl-6′-oxo-2,3,5′,6′-tetrahydro-1′H-spiro[indene-1,4′-pyrimidin]-6-yl]-5-(2,2,2-trifluoro-ethoxy)-pyridine-2-carboxamide] returned an IC50 of 220 nM.

Regarding `CN1C(=O)C[C@]2(CCc3ccc(NC(=O)c4ncccc4C(F)(F)F)cc32)N=C1N` [Example 130, N-[(1S)-2′-amino-1′-methyl-6′-oxo-2,3,5′,6′-tetrahydro-1′H-spiro[indene-1,4′-pyrimidin]-6-yl]-3-trifluoromethyl-pyridine-2-carboxamide], the midpoint of inhibition, the IC50, lay at 1340 nM.

The values are drawn from patent US8461160B2, “Dihydropyrimidinones” (Hoffmann-La Roche, Inc., priority 2009, dated 2013).
